Reference: patent publication US9353090B2, “Heterocyclic carboxylic acids as activators of soluble guanylate cyclase” (Boehringer Ingelheim International GmbH, priority 2014, dated 2016)
Converted amounts (≈) assume the structure as drawn.

Assays:
[1] = target: human soluble guanylate cyclase alpha 1 and beta 1 subunits (sGC) (Homo sapiens (Human), UniProt Q02108+Q02153); test: sGC cellular activator assay (cGMP, HTRF), in the presence and absence of 50% human serum; format: cell-based; conditions: CHO cells stably expressing human sGC alpha 1/beta 1, preincubated with 40 microM ODQ; cGMP by HTRF; Table 2 does not state whether with or without 50% human serum
Chain of human soluble guanylate cyclase alpha 1 and beta 1 subunits (sGC) (Q02108 whole entry partner): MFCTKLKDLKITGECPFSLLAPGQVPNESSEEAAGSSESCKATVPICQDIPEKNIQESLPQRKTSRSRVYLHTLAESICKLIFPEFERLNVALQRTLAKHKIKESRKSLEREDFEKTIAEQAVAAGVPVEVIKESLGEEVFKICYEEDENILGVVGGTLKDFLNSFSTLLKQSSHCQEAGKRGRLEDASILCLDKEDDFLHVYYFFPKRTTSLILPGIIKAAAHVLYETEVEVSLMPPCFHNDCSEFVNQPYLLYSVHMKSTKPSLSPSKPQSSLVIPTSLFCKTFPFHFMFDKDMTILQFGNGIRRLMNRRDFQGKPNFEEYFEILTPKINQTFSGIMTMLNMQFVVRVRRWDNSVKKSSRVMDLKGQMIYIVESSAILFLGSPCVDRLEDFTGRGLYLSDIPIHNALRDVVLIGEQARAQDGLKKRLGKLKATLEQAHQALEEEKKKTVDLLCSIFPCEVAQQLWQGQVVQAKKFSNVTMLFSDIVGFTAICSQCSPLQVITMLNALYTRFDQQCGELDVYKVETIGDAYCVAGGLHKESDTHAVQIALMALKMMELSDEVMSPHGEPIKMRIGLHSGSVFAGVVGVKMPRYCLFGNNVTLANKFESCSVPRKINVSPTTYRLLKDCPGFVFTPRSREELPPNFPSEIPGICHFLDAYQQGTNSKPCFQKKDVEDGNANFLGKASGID
Chain of human soluble guanylate cyclase alpha 1 and beta 1 subunits (sGC) (Q02153 whole entry): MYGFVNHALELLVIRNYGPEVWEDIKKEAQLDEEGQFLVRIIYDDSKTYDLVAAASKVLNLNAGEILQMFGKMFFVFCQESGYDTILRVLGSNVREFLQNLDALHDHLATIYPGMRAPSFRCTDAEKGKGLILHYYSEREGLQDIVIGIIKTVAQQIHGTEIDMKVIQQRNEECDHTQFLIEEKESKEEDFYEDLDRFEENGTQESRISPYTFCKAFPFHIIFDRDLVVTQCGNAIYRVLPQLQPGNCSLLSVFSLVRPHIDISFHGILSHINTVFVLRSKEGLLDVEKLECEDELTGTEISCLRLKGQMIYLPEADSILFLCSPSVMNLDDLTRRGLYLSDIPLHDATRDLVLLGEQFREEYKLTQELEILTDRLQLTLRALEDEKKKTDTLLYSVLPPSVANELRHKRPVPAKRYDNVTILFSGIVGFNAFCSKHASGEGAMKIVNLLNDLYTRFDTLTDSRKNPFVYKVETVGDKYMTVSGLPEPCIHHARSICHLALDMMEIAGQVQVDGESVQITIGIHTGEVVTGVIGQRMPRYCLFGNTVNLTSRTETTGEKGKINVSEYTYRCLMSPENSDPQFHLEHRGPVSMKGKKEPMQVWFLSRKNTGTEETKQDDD
Summary of the method: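 Heme-oxidized conditions: ODQ (40 microM, 1 h) pretreatment of CHO cells stably expressing human α1/β1 sGC, in buffer containing 0.1% BSA and IBMX.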

[2] = Human liver microsome (HLM) metabolic stability assay; format: in vitro ADME; conditions: human liver microsomes
Summary of the method: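 Compound at 1 uM incubated with human liver microsomes at 37° C. for 60 min after NADPH addition. Aliquots quenched in cold acetonitrile at 0, 5, 15, 30 and 60 min and analysed by LC/MS/MS. t1/2 from ln(% remaining) vs time slope; CLint, CLh and % Qh derived from it (n=1).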

[3] = physchem; conditions: kinetic from dmso stock
[4] = pH 2.2, aqueous buffer, Solubility (pH 2.2)
[5] = pH 4.5, aqueous buffer, Solubility (pH 4.5)
[6] = pH 6.8, aqueous buffer, Solubility (pH 6.8)

Compound | EC50 [1] [nM] | Metabolic stability (Qh %), % hepatic blood flow [2] [%] | solubility at 24 h [3, 4] [µg/mL] | solubility at 24 h [3, 5] [µg/mL] | solubility at 24 h [3, 6] [µg/mL]
CCc1cc(COc2c(C)cccc2-c2cccc(N3C[C@@H]4C[C@]4(C(=O)O)[C@H]3COC)n2)cc2c1CN(C1CCOCC1)CC2 [Compound 53] | 9 | <24 | 130 (≈ 212 µM) | 110 (≈ 180 µM) | 80 (≈ 131 µM)
CO[C@H]1CN(c2cccc(-c3cc(C)ccc3OCc3cc(C)c4c(c3)CCN(C3CCOCC3)C4)n2)CC[C@H]1C(=O)O [Compound 72] | 64 | <24 | 120 (≈ 205 µM) | 100 (≈ 171 µM) | 74 (≈ 126 µM)
CO[C@H]1CN(c2cccc(-c3cccc(Cl)c3OCc3cc(C)c4c(c3)CCN(C3CCOCC3)C4)n2)CC[C@H]1C(=O)O [Compound 250] | 7 | 33 | 147 (≈ 243 µM) | 82.2 (≈ 136 µM) | 51.9 (≈ 85.6 µM)
CCO[C@@H]1CN(c2nccc(-c3cccc(C)c3OCc3cc4c(c(OC)c3)CN(C3CCOCC3)CC4)n2)CC[C@@H]1C(=O)O [Compound 248] | 578 | <24 | 91.2 (≈ 148 µM) | 88.9 (≈ 144 µM) | 88.1 (≈ 143 µM)
COc1ccc(OCc2ccc3c(c2C)CCN(C2COC2)C3)c(-c2csc(N3CC[C@@]4(C(=O)O)C[C@H]4C3)n2)c1 [Compound 201] | 40 | <24 | 132 (≈ 235 µM) | 10.1 (≈ 18 µM) | 19.5 (≈ 34.7 µM)
CO[C@@H]1CN(c2nc(-c3cc(F)cc(C)c3OCc3ccc4c(c3C)CCN(C3CCOCC3)CC4)cs2)CC[C@@H]1C(=O)O [Compound 329] | 13 | <24 | 103 (≈ 164 µM) | 63.9 (≈ 102 µM) | 68 (≈ 109 µM)
Cc1cc(COc2c(C)cccc2-c2cccc(N3C[C@@H]4C[C@]4(C(=O)O)C3)n2)cc2c1CN(C1CCOC1)CC2 (stereo partly drawn) [Compound 24] | 6 | <24 | 110 (≈ 204 µM) | 98 (≈ 182 µM) | 69 (≈ 128 µM)
Cc1cccc(-c2cccc(N3C[C@@H]4C[C@]4(C(=O)O)C3)n2)c1OCc1cc(C#N)c2c(c1)CCN(C1CCOCC1)C2 [Compound 30] | 8 | <24 | 110 (≈ 195 µM) | 84 (≈ 149 µM) | 62 (≈ 110 µM)
CCO[C@@H]1CN(c2cccc(-c3cccc(Cl)c3OCc3cc(C)c4c(c3)CCN(C3CCOCC3)C4)n2)CC[C@@H]1C(=O)O [Compound 259] | 65 | 44 | 150 (≈ 241 µM) | 86.8 (≈ 140 µM) | 58 (≈ 93.5 µM)
Cc1ccc(OCc2cc(C)c3c(c2)CCN(C2CCOCC2)C3)c(-c2cccc(N3C[C@@H]4C[C@]4(C(=O)O)C3)n2)c1 [Compound 37] | 299 | <24 | 100 (≈ 181 µM) | 93 (≈ 168 µM) | 50 (≈ 90.3 µM)
CO[C@@H]1CN(c2cccc(-c3cccc(C)c3OCc3cc(C)c4c(c3)CN(C3CCOCC3)C4)n2)CC[C@@H]1C(=O)O [Compound 338] | 24 | <24 | 132 (≈ 230 µM) | 106 (≈ 185 µM) | 73.6 (≈ 129 µM)
CCO[C@H]1CN(c2cccc(-c3cc(C)ccc3OCc3cc4c(c(OC)c3)CN(C3CCOCC3)CC4)n2)CC[C@H]1C(=O)O [Compound 235] | 680 | 50 | 128 (≈ 208 µM) | 127 (≈ 206 µM) | 119 (≈ 193 µM)
Cc1ccc(OCc2ccc3c(c2)CCN(C2CCOCC2)C3)c(-c2csc(N3CC[C@@]4(C(=O)O)C[C@H]4C3)n2)c1 [Compound 110] | 17 | <24 | 110 (≈ 197 µM) | 54 (≈ 96.5 µM) | 0.58 (≈ 1.04 µM)
Cc1ccc(OCc2ccc3c(c2)CCN(C2COC2)C3)c(-c2cccc(N3CC[C@@]4(C(=O)O)C[C@H]4C3)n2)c1 [Compound 17] | 22 | 33 | 100 (≈ 190 µM) | 83 (≈ 158 µM) | 39 (≈ 74.2 µM)
Cc1cc(C)c(OCc2ccc3c(c2)CCN(C2CCOCC2)C3)c(-c2csc(N3C[C@@H]4C[C@]4(C(=O)O)C3)n2)c1 [Compound 151] | 135 | <24 | 110 (≈ 197 µM) | 71 (≈ 127 µM) | 54 (≈ 96.5 µM)
Cc1ccc(OCc2cc(C)c3c(c2)CCN(C2CCCOC2)C3)c(-c2csc(N3CC[C@@]4(C(=O)O)C[C@H]4C3)n2)c1 (mixture of isomers) [Compound 121] | 10 | <24 | 110 | 14 | 0.69

These reach a lower EC50 [1]. Values come first.

EC50 [1] [nM] | Metabolic stability (Qh %), % hepatic blood flow [2] [%] | solubility at 24 h [3, 4] [µg/mL] | solubility at 24 h [3, 5] [µg/mL] | solubility at 24 h [3, 6] [µg/mL] | Compound
3 | 42 | 120 (≈ 209 µM) | 55 (≈ 95.9 µM) | 19 (≈ 33.1 µM) | Cc1cc(COc2c(C)cccc2-c2csc(N3CC[C@@]4(C(=O)O)C[C@H]4C3)n2)cc2c1CN(C1CCCOC1)CC2 (stereo partly drawn) [Compound 94]
3 | 59 | 120 (≈ 204 µM) | 69 (≈ 117 µM) | 14 (≈ 23.8 µM) | Cc1cc(COc2c(C)cccc2-c2csc(N3CC[C@@]4(C(=O)O)C[C@H]4C3)n2)c(C)c2c1CN(C1CCCOC1)CC2 (stereo partly drawn) [Compound 99]
5 | <24 | 130 (≈ 232 µM) | 36 (≈ 64.3 µM) | 2.7 (≈ 4.82 µM) | Cc1ccc(OCc2ccc3c(c2)CCN(C2CCCOC2)C3)c(-c2csc(N3CC[C@@]4(C(=O)O)C[C@H]4C3)n2)c1 (stereo partly drawn) [Compound 113]
4 | 53 | 140 (≈ 253 µM) | 110 (≈ 199 µM) | 46 (≈ 83.1 µM) | Cc1c(COc2ccccc2-c2cccc(N3CC[C@@]4(C(=O)O)C[C@H]4C3)n2)ccc2c1CCN([C@H]1CCCOC1)C2 [Compound 11]
2 | <24 | 133 (≈ 212 µM) | 81.7 (≈ 131 µM) | 72.9 (≈ 116 µM) | COc1cc(COc2c(C)cccc2-c2csc(N3CC[C@@H](C(=O)O)[C@@H](OC)C3)n2)c(F)c2c1CN(C1CCOCC1)CC2 [Compound 252]
3 | 85 | 164 (≈ 258 µM) | 88.2 (≈ 139 µM) | 59 (≈ 92.7 µM) | CCO[C@H]1CN(c2cccc(-c3cccc(Cl)c3OCc3cc4c(c(OC)c3)CN(C3CCOCC3)CC4)n2)CC[C@H]1C(=O)O [Compound 257]
2 | 27 | 120 (≈ 203 µM) | 42 (≈ 71.2 µM) | 3.4 (≈ 5.77 µM) | Cc1ccc(OCc2ccc3c(c2C)CCN(CC2COCCO2)C3)c(-c2csc(N3CC[C@@]4(C(=O)O)C[C@H]4C3)n2)c1 (stereo partly drawn) [Compound 117]
2 | 55 | 120 (≈ 209 µM) | 67 (≈ 117 µM) | 28 (≈ 48.8 µM) | Cc1cccc(-c2csc(N3CC[C@@]4(C(=O)O)C[C@H]4C3)n2)c1OCc1ccc2c(c1C)CCN(C1CCCOC1)C2 (stereo partly drawn) [Compound 87]
